# Reference: patent US20140271573A1, “PHARMACO-CELLULAR THERAPEUTIC METHOD FOR THE TREATMENT OF MUSCULAR DYSTROPHIES” (PONTIFICIA UNIVERSIDAD CATÓLICA DE CHILE, priority 2013, published 2014)
# “Also recorded” adds a separate entry of the source.
# Key:
# mdx mice [1] = assay: Collagen and fibronectin in tibialis anterior muscle of mdx mice, immunofluorescence and western blot; type: in vivo, mouse; details: exercised mdx mice, 1 mg/kg i.p. 3 times per week for 3 months
# Procedure: FIG. 5. Andrographolide reduced skeletal muscle fibrosis in mdx mice. To augment the extent of muscle fibrosis, 3 months old mdx mice were subjected to an exercise protocol for 3 months. Along this period one group was treated with 1 mg/kg andrographolide or vehicle (i.p. injections 3 time per week, 6 animal per group). A) Detection of collagen I and fibronectin by indirect immunofluorescence analysis in cryosections of tibialis anterior muscles from WT, Vehicle-treated mdx and andrographolide-treated mdx mice. Bar corresponds to 200 μm. B) fibronectin (FN) protein levels were detected by western blot analysis in extracts obtained from tibialis Anterior muscles from WT, Vehicle-treated mdx and andrographolide-treated mdx mice. […] GAPDH protein levels are shown as loading control; molecular weight markers are shown in kDa.
# For immunoblot analyses, muscles were homogenized in 10 volume Tris-EDTA buffer with 1 mM PMSF as described previously (Morales et al., 2011). Briefly, proteins were determined in aliquots of muscle extracts using the bicinchoninic acid protein assay kit (Pierce, Ill.) using BSA as standard. Aliquots (50-100 μg) were subjected to SDS gel electrophoresis in 8% or 10% polyacrylamide gels, electrophoretically transferred onto PVDF membranes (Schleicher & Schuell) and probed with specific antibodies against fibronectin (Sigma-Aldrich, USA), collagen III (Rockland, USA and GAPDH (Millipore, USA), tubulin (Sigma-Aldrich, USA) and GAPDH (Sigma-Aldrich, USA). All immunoreactions were visualized by enhanced chemiluminescence kit (Pierce, USA). Densitometric analysis and quantification were performed using ImageJ software (NIH, USA) (Cabello-Verrugio et al., 2012).
# (§1) Control or mdx (12 weeks old) male mice of C57BL/10 ScSn strain were studied. The animals were kept at room temperature with a […] night-day cycle and fed with pellets and water ad libitum. Experimental exercise was performed for running the mice in a treadmill for three times per week, 30 minutes each time at 12 m/min during 3 or 4 months (De Luca et al., 2005; De Luca et al., 2003). […]
# CTGF = CTGF expression induced by TGF-β1 in C2C12 cells, northern blot; type: cell-based, mouse; details: C2C12, 10 ng/ml TGF-β1, 50 μM andrographolide, 6 hrs
# From the text: FIG. 1. […] (Vial et al., 2008).
# TGF-β1 = TGF-β1 mRNA levels in tibialis anterior muscle of exercised mdx mice, RT-qPCR; type: in vivo, mouse; details: 1 mg/kg i.p. 3 times per week for 3 months, vs vehicle
# Procedure: FIG. 2. Andrographolide reduced expression and activity of the pro-fibrotic cytokine, TGF-β1, in mdx mice. To augment the extent of muscle fibrosis, 3 months old mdx mice were subjected to an exercise protocol for 3 months. Along this period one group was treated with 1 mg/kg andrographolide or vehicle (i.p. injections 3 time per week, 4 animal per group). A) TGF-β1 mRNA levels, an important pro-fibrotic cytokine, were determined in tibialis anterior muscle from Wild type (WT), Vehicle-Treated mdx and andrographolide-treated mdx mice by RT-qPCR using GAPDH as reference gene. Values correspond to the mean of dCT value±SD of three independent experiments, using four mice for each experimental condition and normalized to WT levels (*, P<0.05 relative to WT mice; #, P<0.05 relative to Vehicle-treated mdx mice). B) Detection of pSmad-2 (an intracellular TGF-β1 mediator) through indirect immunofluorescence analysis in cryosections of tibialis anterior muscle from Vehicle-treated and andrographolide-treated mdx mice. Bar corresponds to 200 μm.
# Control or mdx (12 weeks old) male mice of C57BL/10 ScSn strain were studied. The animals were kept at room temperature with a […] night-day cycle and fed with pellets and water ad libitum. […]
# mdx mice [2] = assay: Evans blue dye uptake in tibialis anterior muscle fibers of mdx mice; type: in vivo, mouse; details: exercised mdx mice, 1 mg/kg i.p. 3 times per week for 3 months
# Procedure: (§2) FIG. 4. Andrographolide reduced skeletal muscle damage in mdx mice. To augment the extent of muscle fibrosis, 3 months old mdx mice were subjected to an exercise protocol for 3 months. Along this period one group was treated with 1 mg/kg andrographolide or vehicle (i.p. injections 3 time per week, 6 animal per group). […] B) Evans blue dye uptake in tibialis anterior muscle fibers from wild-type (WT), Vehicle-treated mdx and andrographolide-treated mdx mice. Nuclei were labeled with Hoechst. Mice were injected i.p. with 1% Evans blue dye 24 hours before muscle fixation. Bar corresponds to 200 μm. […] Values are expressed as mean±SD of three independent experiments, using eight mice for each experimental condition. (*, P<0.05 relative to WT mice; #, P<0.05 relative to Vehicle-treated mdx mice).
# as §1
# Animals were injected with Evans Blue dye (1% in PBS) and allowed to stay for 24 hours. […] The percentage of Evans blue dye positive fibers was manually counted in a blinded manner (Straub et al., 1997).
# mdx mice [3] = assay: Hematoxylin and eosin histology of tibialis anterior muscle of mdx mice; type: in vivo, mouse; details: exercised mdx mice, 1 mg/kg i.p. 3 times per week for 3 months, vs vehicle
# Procedure: as §2, §1
# Architecture and histology were detected by hematoxylin-eosin (H&E) stain in transverse sections of muscle (Morales et al., 2011).
smiles,measurement,setting,value
C=C1CC[C@@H]2[C@](C)(CO)[C@H](O)CC[C@@]2(C)[C@@H]1C/C=C1/C(=O)OC[C@H]1O [andrographolide],"accumulation of collagen type I, immunofluorescence staining",mdx mice [1]; tibialis anterior,strongly decrease
same,"accumulation of fibronectin, immunofluorescence staining",mdx mice [1]; tibialis anterior,strongly decrease
same,fibronectin protein levels by western blot analysis,mdx mice [1]; tibialis anterior extracts,decreased
same,induction of CTGF expression in response to TGF-β1,CTGF,reduced
same,expression of TGF-β1 (mRNA) in mdx mice,TGF-β1,reduced
same,Evans blue dye uptake in muscle fibers,mdx mice [2],lower Evans blue dye uptake
same,"damaged areas in muscle, hematoxylin and eosin staining",mdx mice [3],striking smaller muscle damaged areas; also recorded: prevented the increase of damaged areas
